Article doi:10.1101/2021.09.30.462449v1 (biorxiv, 2021)

How the values were obtained:
Assay in all cases: biochemical
GSG2 (Haspin) = GSG2 (Haspin) (Homo sapiens, UniProt Q8TF76); conditions: read-out: % inhibition mean (Adapta)
[1] = target: PIK3CA/PIK3R3 (p110 alpha/p55 gamma) (Homo sapiens, UniProt P42336); conditions: read-out: % inhibition mean (Adapta)
PIK3C2A (PI3K-C2 alpha) = PIK3C2A (PI3K-C2 alpha) (Homo sapiens, UniProt O00443); conditions: read-out: % inhibition mean (Adapta)
PIP5K1A = PIP5K1A (Homo sapiens, UniProt Q99755); conditions: read-out: % inhibition mean (Adapta)
PIP5K1A, sequence (Q99755 whole entry): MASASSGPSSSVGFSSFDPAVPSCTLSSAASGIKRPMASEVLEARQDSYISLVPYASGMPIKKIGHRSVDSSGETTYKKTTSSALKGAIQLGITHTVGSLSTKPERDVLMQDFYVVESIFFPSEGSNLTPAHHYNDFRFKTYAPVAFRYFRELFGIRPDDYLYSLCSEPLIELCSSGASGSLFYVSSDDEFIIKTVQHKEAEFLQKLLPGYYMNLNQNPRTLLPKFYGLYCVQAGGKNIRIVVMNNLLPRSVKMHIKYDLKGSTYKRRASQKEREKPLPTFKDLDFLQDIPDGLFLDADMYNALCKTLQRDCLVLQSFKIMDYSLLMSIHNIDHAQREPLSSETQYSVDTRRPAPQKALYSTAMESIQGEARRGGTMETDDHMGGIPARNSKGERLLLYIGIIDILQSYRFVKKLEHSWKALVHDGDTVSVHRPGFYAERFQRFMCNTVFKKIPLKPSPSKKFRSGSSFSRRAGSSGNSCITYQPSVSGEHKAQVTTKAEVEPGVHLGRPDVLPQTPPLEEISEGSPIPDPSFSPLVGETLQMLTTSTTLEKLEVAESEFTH

PIK3CG (p110 gamma) = PIK3CG (p110 gamma) (Homo sapiens, UniProt P48736); conditions: read-out: % inhibition mean (Adapta)
[2] = target: PIK3CB/PIK3R2 (p110 beta/p85 beta) (Homo sapiens, UniProt P42338); conditions: read-out: % inhibition mean (Adapta)
PIK3CB/PIK3R2 (p110 beta/p85 beta), sequence (P42338 whole entry): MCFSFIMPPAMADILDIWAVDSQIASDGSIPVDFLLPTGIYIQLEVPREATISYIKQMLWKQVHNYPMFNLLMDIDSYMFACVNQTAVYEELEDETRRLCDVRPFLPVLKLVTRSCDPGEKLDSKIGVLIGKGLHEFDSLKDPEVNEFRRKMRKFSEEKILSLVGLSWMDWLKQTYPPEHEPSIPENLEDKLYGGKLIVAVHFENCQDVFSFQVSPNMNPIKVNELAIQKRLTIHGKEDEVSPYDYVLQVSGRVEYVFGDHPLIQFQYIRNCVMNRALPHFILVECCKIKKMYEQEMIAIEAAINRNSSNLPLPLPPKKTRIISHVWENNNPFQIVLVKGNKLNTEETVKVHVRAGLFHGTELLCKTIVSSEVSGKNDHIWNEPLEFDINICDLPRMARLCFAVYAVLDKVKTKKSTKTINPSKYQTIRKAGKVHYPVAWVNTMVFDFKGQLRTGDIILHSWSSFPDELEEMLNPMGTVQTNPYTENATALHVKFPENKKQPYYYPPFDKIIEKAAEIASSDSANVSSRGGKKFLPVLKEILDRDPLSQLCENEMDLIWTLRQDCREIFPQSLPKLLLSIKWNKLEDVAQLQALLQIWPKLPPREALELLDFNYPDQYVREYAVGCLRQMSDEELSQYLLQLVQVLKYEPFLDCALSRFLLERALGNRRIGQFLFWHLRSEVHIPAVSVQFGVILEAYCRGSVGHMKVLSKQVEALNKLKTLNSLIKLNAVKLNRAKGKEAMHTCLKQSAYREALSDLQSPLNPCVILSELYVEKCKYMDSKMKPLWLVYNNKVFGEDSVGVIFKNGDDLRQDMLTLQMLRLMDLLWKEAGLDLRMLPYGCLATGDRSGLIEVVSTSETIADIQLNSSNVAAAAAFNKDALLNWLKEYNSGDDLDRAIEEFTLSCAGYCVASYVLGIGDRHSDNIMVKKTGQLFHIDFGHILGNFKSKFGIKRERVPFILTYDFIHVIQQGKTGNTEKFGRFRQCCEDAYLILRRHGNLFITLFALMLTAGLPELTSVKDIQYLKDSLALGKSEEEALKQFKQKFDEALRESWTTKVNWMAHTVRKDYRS
PIK3CB/PIK3R2 (p110 beta/p85 beta), sequence (O00459 whole entry partner): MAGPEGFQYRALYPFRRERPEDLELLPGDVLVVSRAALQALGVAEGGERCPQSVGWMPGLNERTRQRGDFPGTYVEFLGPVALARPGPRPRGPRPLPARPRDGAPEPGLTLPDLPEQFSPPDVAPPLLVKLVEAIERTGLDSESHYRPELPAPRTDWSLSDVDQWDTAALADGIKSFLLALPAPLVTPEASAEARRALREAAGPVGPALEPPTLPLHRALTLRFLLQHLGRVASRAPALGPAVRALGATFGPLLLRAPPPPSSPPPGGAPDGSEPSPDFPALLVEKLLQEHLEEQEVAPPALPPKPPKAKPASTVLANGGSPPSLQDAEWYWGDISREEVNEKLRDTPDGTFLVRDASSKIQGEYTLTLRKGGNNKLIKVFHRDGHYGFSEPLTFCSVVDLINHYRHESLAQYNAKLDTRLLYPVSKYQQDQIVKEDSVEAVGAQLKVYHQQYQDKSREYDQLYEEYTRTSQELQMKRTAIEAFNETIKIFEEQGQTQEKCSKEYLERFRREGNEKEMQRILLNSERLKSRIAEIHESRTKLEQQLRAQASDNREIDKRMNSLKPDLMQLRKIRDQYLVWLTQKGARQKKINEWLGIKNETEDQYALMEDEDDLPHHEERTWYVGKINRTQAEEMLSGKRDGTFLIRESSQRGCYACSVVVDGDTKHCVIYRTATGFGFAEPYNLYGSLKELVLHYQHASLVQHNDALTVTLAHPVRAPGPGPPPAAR

LRRK2 G2019S FL = LRRK2 G2019S FL (Homo sapiens, UniProt Q5S007, G2019S); conditions: read-out: % inhibition mean (Adapta)
LRRK2 = LRRK2 (Homo sapiens, UniProt Q5S007); conditions: read-out: % inhibition mean (Adapta)
CDK9/cyclin T1 = CDK9/cyclin T1 (Homo sapiens, UniProt P50750); conditions: read-out: % inhibition mean (Adapta)
PI4K2B (PI4K2 beta) = PI4K2B (PI4K2 beta) (Homo sapiens, UniProt Q8TCG2); conditions: read-out: % inhibition mean (Adapta)
LRRK2 R1441C = LRRK2 R1441C (Homo sapiens, UniProt Q5S007, R1441C); conditions: read-out: % inhibition mean (Adapta)
LRRK2 I2020T = LRRK2 I2020T (Homo sapiens, UniProt Q5S007, I2020T); conditions: read-out: % inhibition mean (Adapta)
DAPK1 = DAPK1 (Homo sapiens, UniProt P53355); conditions: read-out: % inhibition mean (Adapta)
[3] = target: PIK3CB/PIK3R1 (p110 beta/p85 alpha) (Homo sapiens, UniProt P42338); conditions: read-out: % inhibition mean (Adapta)
PIK3CB/PIK3R1 (p110 beta/p85 alpha), sequence (P42338 whole entry): as the sequence (P42338 whole entry) above
PIK3CB/PIK3R1 (p110 beta/p85 alpha), sequence (P27986 whole entry partner): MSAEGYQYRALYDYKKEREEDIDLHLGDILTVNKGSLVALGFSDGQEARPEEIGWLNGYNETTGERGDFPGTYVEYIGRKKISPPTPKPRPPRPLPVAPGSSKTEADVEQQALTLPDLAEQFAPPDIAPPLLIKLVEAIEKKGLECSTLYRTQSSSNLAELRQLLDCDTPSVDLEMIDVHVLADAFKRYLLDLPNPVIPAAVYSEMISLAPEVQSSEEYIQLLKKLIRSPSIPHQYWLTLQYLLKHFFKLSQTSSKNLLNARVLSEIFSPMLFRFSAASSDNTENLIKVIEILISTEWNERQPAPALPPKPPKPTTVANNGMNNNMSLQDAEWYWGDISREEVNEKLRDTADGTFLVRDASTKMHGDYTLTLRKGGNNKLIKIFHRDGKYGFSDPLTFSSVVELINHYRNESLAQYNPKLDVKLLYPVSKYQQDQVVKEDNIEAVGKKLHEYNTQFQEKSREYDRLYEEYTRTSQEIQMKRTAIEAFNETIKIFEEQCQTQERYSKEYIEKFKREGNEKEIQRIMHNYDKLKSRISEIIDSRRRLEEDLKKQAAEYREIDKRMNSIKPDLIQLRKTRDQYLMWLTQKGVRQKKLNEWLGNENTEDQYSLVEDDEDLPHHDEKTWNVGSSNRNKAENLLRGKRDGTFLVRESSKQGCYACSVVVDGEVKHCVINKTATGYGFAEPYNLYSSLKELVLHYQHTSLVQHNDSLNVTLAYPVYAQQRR

SPHK2 = SPHK2 (Homo sapiens, UniProt Q9NRA0); conditions: read-out: % inhibition mean (Adapta)
CDK4/cyclin D3 = CDK4/cyclin D3 (Homo sapiens, UniProt P11802); conditions: read-out: % inhibition mean (Adapta)
PIP5K1B = PIP5K1B (Homo sapiens, UniProt O14986); conditions: read-out: % inhibition mean (Adapta)
SPHK1 = SPHK1 (Homo sapiens, UniProt Q9NYA1); conditions: read-out: % inhibition mean (Adapta)
RPS6KA1 (RSK1) = RPS6KA1 (RSK1) (Homo sapiens, UniProt Q15418); conditions: read-out: % inhibition mean (Z'Lyte)
CAMK2A (CaMKII alpha) = CAMK2A (CaMKII alpha) (Homo sapiens, UniProt Q9UQM7); conditions: read-out: % inhibition mean (Z'Lyte)
CAMK2A (CaMKII alpha), sequence (Q9UQM7 whole entry): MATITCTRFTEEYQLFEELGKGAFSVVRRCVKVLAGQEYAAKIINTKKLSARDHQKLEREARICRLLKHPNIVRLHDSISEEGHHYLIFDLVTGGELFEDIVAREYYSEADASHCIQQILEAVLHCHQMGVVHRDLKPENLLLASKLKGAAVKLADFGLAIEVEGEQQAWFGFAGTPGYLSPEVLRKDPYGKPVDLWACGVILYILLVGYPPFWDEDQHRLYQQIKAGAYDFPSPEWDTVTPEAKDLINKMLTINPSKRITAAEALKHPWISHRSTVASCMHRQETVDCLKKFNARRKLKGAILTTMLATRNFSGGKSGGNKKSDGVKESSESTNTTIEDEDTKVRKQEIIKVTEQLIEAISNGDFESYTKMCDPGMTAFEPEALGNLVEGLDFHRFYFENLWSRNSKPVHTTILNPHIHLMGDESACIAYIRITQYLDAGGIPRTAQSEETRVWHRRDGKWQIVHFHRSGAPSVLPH

PAK4 = PAK4 (Homo sapiens, UniProt O96013); conditions: read-out: % inhibition mean (Z'Lyte)
FLT3 = FLT3 (Homo sapiens, UniProt P36888); conditions: read-out: % inhibition mean (Z'Lyte)
CAMK2B (CaMKII beta) = CAMK2B (CaMKII beta) (Homo sapiens, UniProt Q13554); conditions: read-out: % inhibition mean (Z'Lyte)
KIT T670I = KIT T670I (Homo sapiens, UniProt P10721, T670I); conditions: read-out: % inhibition mean (Z'Lyte)
KDR (VEGFR2) = KDR (VEGFR2) (Homo sapiens, UniProt P35968); conditions: read-out: % inhibition mean (Z'Lyte)
KDR (VEGFR2), sequence (P35968 whole entry): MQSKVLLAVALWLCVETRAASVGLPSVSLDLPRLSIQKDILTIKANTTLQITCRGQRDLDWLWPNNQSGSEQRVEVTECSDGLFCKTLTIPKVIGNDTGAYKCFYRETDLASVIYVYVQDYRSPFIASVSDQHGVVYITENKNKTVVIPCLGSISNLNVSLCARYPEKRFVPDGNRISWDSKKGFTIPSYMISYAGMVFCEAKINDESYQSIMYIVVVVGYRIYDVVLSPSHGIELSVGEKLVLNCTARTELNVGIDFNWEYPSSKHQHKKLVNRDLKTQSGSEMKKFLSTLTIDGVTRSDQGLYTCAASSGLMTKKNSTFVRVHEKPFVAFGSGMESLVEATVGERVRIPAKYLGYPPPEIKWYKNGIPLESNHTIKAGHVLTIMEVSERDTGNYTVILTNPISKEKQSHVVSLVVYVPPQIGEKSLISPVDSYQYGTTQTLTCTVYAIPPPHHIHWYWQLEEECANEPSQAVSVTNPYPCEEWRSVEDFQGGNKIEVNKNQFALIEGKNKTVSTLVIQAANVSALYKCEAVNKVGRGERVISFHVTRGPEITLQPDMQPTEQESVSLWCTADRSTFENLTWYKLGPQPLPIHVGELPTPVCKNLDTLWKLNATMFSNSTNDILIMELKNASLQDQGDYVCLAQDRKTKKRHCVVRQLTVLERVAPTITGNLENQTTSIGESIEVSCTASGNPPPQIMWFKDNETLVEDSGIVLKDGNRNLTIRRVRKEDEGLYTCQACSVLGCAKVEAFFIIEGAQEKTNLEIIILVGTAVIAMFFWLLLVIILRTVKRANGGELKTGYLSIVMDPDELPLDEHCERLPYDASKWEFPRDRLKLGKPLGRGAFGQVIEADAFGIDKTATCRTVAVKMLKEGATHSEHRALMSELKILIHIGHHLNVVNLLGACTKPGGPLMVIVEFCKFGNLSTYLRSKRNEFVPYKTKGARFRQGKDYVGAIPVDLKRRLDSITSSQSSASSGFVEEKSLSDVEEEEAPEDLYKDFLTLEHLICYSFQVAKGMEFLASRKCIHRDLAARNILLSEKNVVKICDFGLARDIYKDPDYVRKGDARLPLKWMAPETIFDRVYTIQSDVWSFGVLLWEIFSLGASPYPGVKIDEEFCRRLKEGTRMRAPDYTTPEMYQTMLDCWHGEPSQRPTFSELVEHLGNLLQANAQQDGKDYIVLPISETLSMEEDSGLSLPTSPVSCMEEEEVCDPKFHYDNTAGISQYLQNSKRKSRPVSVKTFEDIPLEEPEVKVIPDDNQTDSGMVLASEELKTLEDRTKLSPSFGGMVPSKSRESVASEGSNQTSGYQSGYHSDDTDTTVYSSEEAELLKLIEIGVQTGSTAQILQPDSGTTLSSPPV

ADRBK1 (GRK2) = ADRBK1 (GRK2) (Homo sapiens, UniProt P25098); conditions: read-out: % inhibition mean (Z'Lyte)
DYRK1B = DYRK1B (Homo sapiens, UniProt Q9Y463); conditions: read-out: % inhibition mean (Z'Lyte)
LTK (TYK1) = LTK (TYK1) (Homo sapiens, UniProt P29376); conditions: read-out: % inhibition mean (Z'Lyte)

With `COc1ccc2nc3cc(Cl)ccc3c(Nc3cc(CN4CCCC4)c(O)c(CN4CCCC4)c3)c2n1` [Pyronaridine, 4-[(7-Chloro-2-methoxybenzo[b][1,5]naphthyridin-10-yl)amino]-2,6-bis(1-pyrrolidinylmethyl)phenol phosphate (1:4)] as the compound, how does the inhibition at 1 µM (GSG2 (Haspin)) read?
Its inhibition at 1 µM is 9%.

What about the inhibition at 1 µM [1] of the same compound?
Its inhibition at 1 µM is 1%.

What about the inhibition at 1 µM (PIK3C2A (PI3K-C2 alpha)) of the same compound?
The inhibition at 1 µM was -1%.

And the inhibition at 1 µM (PIP5K1A)?
Its inhibition at 1 µM is -6%.

And the inhibition at 1 µM (PIK3CG (p110 gamma))?
The inhibition at 1 µM was 2%.

And the inhibition at 1 µM [2]?
Its inhibition at 1 µM is -2%.

What about the inhibition at 1 µM (LRRK2 G2019S FL) of the same compound?
The inhibition at 1 µM was -10%.

And the inhibition at 1 µM (LRRK2)?
The inhibition at 1 µM was -2%.

What about the inhibition at 1 µM (CDK9/cyclin T1) of the same compound?
The inhibition at 1 µM was 5%.

And the inhibition at 1 µM (PI4K2B (PI4K2 beta))?
Its inhibition at 1 µM is 2%.

And the inhibition at 1 µM (LRRK2 R1441C)?
Its inhibition at 1 µM is -7%.

What about the inhibition at 1 µM (LRRK2 I2020T) of the same compound?
The inhibition at 1 µM was -15%.

What about the inhibition at 1 µM (DAPK1) of the same compound?
The inhibition at 1 µM was 11%.

And the inhibition at 1 µM [3]?
Its inhibition at 1 µM is -11%.

And the inhibition at 1 µM (SPHK2)?
The inhibition at 1 µM was -5%.

And the inhibition at 1 µM (CDK4/cyclin D3)?
The inhibition at 1 µM was -6%.

And the inhibition at 1 µM (PIP5K1B)?
The inhibition at 1 µM was -11%.

What about the inhibition at 1 µM (SPHK1) of the same compound?
Its inhibition at 1 µM is 10%.

And the inhibition at 1 µM (RPS6KA1 (RSK1))?
The inhibition at 1 µM was -1%.

What about the inhibition at 1 µM (CAMK2A (CaMKII alpha)) of the same compound?
Its inhibition at 1 µM is 4%.

What about the inhibition at 1 µM (PAK4) of the same compound?
The inhibition at 1 µM was 3%.

And the inhibition at 1 µM (FLT3)?
The inhibition at 1 µM was 3%.

What about the inhibition at 1 µM (CAMK2B (CaMKII beta)) of the same compound?
The inhibition at 1 µM was 1%.

And the inhibition at 1 µM (KIT T670I)?
Its inhibition at 1 µM is 1%.

What about the inhibition at 1 µM (KDR (VEGFR2)) of the same compound?
The inhibition at 1 µM was 7%.

What about the inhibition at 1 µM (ADRBK1 (GRK2)) of the same compound?
The inhibition at 1 µM was -3%.

And the inhibition at 1 µM (DYRK1B)?
The inhibition at 1 µM was 1%.

What about the inhibition at 1 µM (LTK (TYK1)) of the same compound?
Its inhibition at 1 µM is -1%.
